Source: PMC7156458, “Synthetic biology based construction of biological activity-related library of fungal decalin-containing diterpenoid pyrones” (Nature Communications, 2020)

Molecular target: Aβ42 (Homo sapiens, UniProt P05067)
Test: Th-T (thioflavin-T) assay of Aβ42 aggregation
Assay type: biochemical

Sequence of Aβ42 (P05067 672-713): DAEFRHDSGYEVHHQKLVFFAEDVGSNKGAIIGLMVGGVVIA

With C=C1CCC2C(C)(CCC=C(C)C)C(O)CCC2(C)C1Cc1c(OC)oc(CO)c(C)c1=O (stereo not drawn) [Compound 12] the “Fig. 7a Th-T reading, mean of three wells” value (shortened to “Fig. 7a Th-T reading, mean”) (column suffix _20, reading M101) was 2.081, the “Fig. 7a Th-T reading, mean” value (column suffix _20, reading M102) was 2.083 and the “Fig. 7a Th-T reading, mean” value (column suffix _20, reading M103) was 2.082. For the same compound, the “Fig. 7a Th-T reading, mean” value (column suffix _20, reading M104) was 2.11, the “Fig. 7a Th-T reading, mean” value (column suffix _20, reading M105) was 2.097 and the “Fig. 7a Th-T reading, mean” value (column suffix _20, reading M106) was 2.107. The “Th-T fluorescence, mean of three wells (Fig. 7a)” value (from here on “Th-T fluorescence … (Fig. 7a)”) (column suffix _50, measurement M19) was 1.719, the “Th-T fluorescence … (Fig. 7a)” value (column suffix _50, measurement M20) was 1.709 and the “Th-T fluorescence … (Fig. 7a)” value (column suffix _50, measurement M21) was 1.707. The “Th-T fluorescence … (Fig. 7a)” value (column suffix _50, measurement M22) was 1.694, the “Th-T fluorescence … (Fig. 7a)” value (column suffix _50, measurement M23) was 1.672 and the “Th-T fluorescence … (Fig. 7a)” value (column suffix _50, measurement M24) was 1.656. The “Th-T fluorescence … (Fig. 7a)” value (column suffix _50, measurement M25) was 1.634, the “Th-T fluorescence … (Fig. 7a)” value (column suffix _50, measurement M26) was 1.64 and the “Th-T fluorescence … (Fig. 7a)” value (column suffix _50, measurement M27) was 1.6183. For the same compound, the “Th-T fluorescence … (Fig. 7a)” value (column suffix _50, measurement M28) was 1.623, the “Th-T fluorescence … (Fig. 7a)” value (column suffix _50, measurement M29) was 1.606 and the “Th-T assay signal, mean of three wells (Fig. 7a)” value (“Th-T assay signal, mean” below) (column suffix _50, reading M1) was 1.526. For the same compound, the “Th-T assay signal, mean” value (column suffix _50, reading M2) was 1.765, the “Th-T assay signal, mean” value (column suffix _50, reading M3) was 2.409 and the “Th-T assay signal, mean” value (column suffix _50, reading M4) was 2.663. For the same compound, the “Th-T assay signal, mean” value (column suffix _50, reading M5) was 2.734, the “Th-T assay signal, mean” value (column suffix _50, reading M6) was 2.555 and the “Th-T assay signal, mean” value (column suffix _50, reading M7) was 2.454. The “Th-T assay signal, mean” value (column suffix _50, reading M8) was 2.181, the “Th-T assay signal, mean” value (column suffix _50, reading M9) was 2.034 and the “Th-T assay signal, mean” value (column suffix _50, reading M10) was 1.99. The “Th-T assay signal, mean” value (column suffix _50, reading M11) was 1.977, the “Th-T assay signal, mean” value (column suffix _50, reading M12) was 1.8801 and the “Th-T assay signal, mean” value (column suffix _50, reading M13) was 1.841. The “Th-T assay signal, mean” value (column suffix _50, reading M14) was 1.819, the “Th-T assay signal, mean” value (column suffix _50, reading M15) was 1.788 and the “Th-T assay signal, mean” value (column suffix _50, reading M16) was 1.774. The “Th-T assay signal, mean” value (column suffix _50, reading M17) was 1.76, the “Th-T assay signal, mean” value (column suffix _50, reading M18) was 1.746 and the “Fig. 7a Th-T reading, mean” value (column suffix _50, reading M85) was 1.4. The “Fig. 7a Th-T reading, mean” value (column suffix _50, reading M86) was 1.399, the “Fig. 7a Th-T reading, mean” value (column suffix _50, reading M87) was 1.399 and the “Fig. 7a Th-T reading, mean” value (column suffix _50, reading M88) was 1.392. For the same compound, the “Fig. 7a Th-T reading, mean” value (column suffix _50, reading M89) was 1.396, the “Fig. 7a Th-T reading, mean” value (column suffix _50, reading M90) was 1.401 and the “Fig. 7a Th-T reading, mean” value (column suffix _50, reading M91) was 1.4. The “Fig. 7a Th-T reading, mean” value (column suffix _50, reading M92) was 1.405, the “Fig. 7a Th-T reading, mean” value (column suffix _50, reading M93) was 1.424 and the “Fig. 7a Th-T reading, mean” value (column suffix _50, reading M94) was 1.4149. For the same compound, the “Fig. 7a Th-T reading, mean” value (column suffix _50, reading M95) was 1.419, the “Fig. 7a Th-T reading, mean” value (column suffix _50, reading M96) was 1.4015 and the “Fig. 7a Th-T reading, mean” value (column suffix _50, reading M97) was 1.401. The “Fig. 7a Th-T reading, mean” value (column suffix _50, reading M98) was 1.397, the “Fig. 7a Th-T reading, mean” value (column suffix _50, reading M99) was 1.397 and the “Fig. 7a Th-T reading, mean” value (column suffix _50, reading M100) was 1.41. The “Fig. 7a Th-T reading, mean” value (column suffix _50, reading M101) was 1.399, the “Fig. 7a Th-T reading, mean” value (column suffix _50, reading M102) was 1.3937 and the “Fig. 7a Th-T reading, mean” value (column suffix _50, reading M103) was 1.417. The “Fig. 7a Th-T reading, mean” value (column suffix _50, reading M104) was 1.419, the “Fig. 7a Th-T reading, mean” value (column suffix _50, reading M105) was 1.42 and the “Fig. 7a Th-T reading, mean” value (column suffix _50, reading M106) was 1.412. The “Th-T fluorescence, mean of three wells” value (compound at 10, reading M41 of time course) was 3.264, the “Th-T fluorescence, mean of three wells” value (compound at 10, reading M42 of time course) was 3.266 and the “Th-T fluorescence, mean of three wells” value (compound at 10, reading M43 of time course) was 3.271. For the same compound, the “Th-T fluorescence, mean of three wells” value (compound at 10, reading M44 of time course) was 3.34, the “Th-T fluorescence, mean of three wells” value (compound at 10, reading M45 of time course) was 3.373 and the “Th-T fluorescence, mean of three wells” value (compound at 10, reading M46 of time course) was 3.378. The “Th-T fluorescence, mean of three wells” value (compound at 10, reading M47 of time course) was 3.37, the “Th-T fluorescence, mean of three wells” value (compound at 10, reading M48 of time course) was 3.386 and the “Th-T fluorescence, mean of three wells” value (compound at 10, reading M49 of time course) was 3.382. The “Th-T fluorescence, mean of three wells” value (compound at 10, reading M50 of time course) was 3.418, the “Th-T fluorescence, mean of three wells” value (compound at 10, reading M51 of time course) was 3.408 and the “Th-T fluorescence, mean of three wells” value (compound at 10, reading M52 of time course) was 3.423. For the same compound, the “Th-T fluorescence, mean of three wells” value (compound at 10, reading M53 of time course) was 3.4353, the “Th-T fluorescence, mean of three wells” value (compound at 10, reading M54 of time course) was 3.443 and the “Th-T fluorescence, mean of three wells” value (compound at 10, reading M55 of time course) was 3.439. For the same compound, the “Th-T fluorescence, mean of three wells” value (compound at 10, reading M56 of time course) was 3.46, the “Th-T fluorescence, mean of three wells” value (compound at 10, reading M57 of time course) was 3.454 and the “Th-T fluorescence, mean of three wells” value (compound at 10, reading M58 of time course) was 3.457. For the same compound, the “Th-T fluorescence, mean of three wells” value (compound at 10, reading M59 of time course) was 3.451, the “Th-T fluorescence, mean of three wells” value (compound at 10, reading M60 of time course) was 3.452 and the “Th-T fluorescence, mean of three wells” value (compound at 10, reading M61 of time course) was 3.431. The “Th-T fluorescence, mean of three wells” value (compound at 10, reading M62 of time course) was 3.428, the “Th-T fluorescence, mean of three wells” value (compound at 20, reading M41 of time course) was 2.229 and the “Th-T fluorescence, mean of three wells” value (compound at 20, reading M42 of time course) was 2.216. The “Th-T fluorescence, mean of three wells” value (compound at 20, reading M43 of time course) was 2.22, the “Th-T fluorescence, mean of three wells” value (compound at 20, reading M44 of time course) was 2.199 and the “Th-T fluorescence, mean of three wells” value (compound at 20, reading M45 of time course) was 2.1759. For the same compound, the “Th-T fluorescence, mean of three wells” value (compound at 20, reading M46 of time course) was 2.17, the “Th-T fluorescence, mean of three wells” value (compound at 20, reading M47 of time course) was 2.178 and the “Th-T fluorescence, mean of three wells” value (compound at 20, reading M48 of time course) was 2.1654. For the same compound, the “Th-T fluorescence, mean of three wells” value (compound at 20, reading M49 of time course) was 2.1539, the “Th-T fluorescence, mean of three wells” value (compound at 20, reading M50 of time course) was 2.1392 and the “Th-T fluorescence, mean of three wells” value (compound at 20, reading M51 of time course) was 2.1473. The “Th-T fluorescence, mean of three wells” value (compound at 20, reading M52 of time course) was 2.131, the “Th-T fluorescence, mean of three wells” value (compound at 20, reading M53 of time course) was 2.116 and the “Th-T fluorescence, mean of three wells” value (compound at 20, reading M54 of time course) was 2.151. The “Th-T fluorescence, mean of three wells” value (compound at 20, reading M55 of time course) was 2.154, the “Th-T fluorescence, mean of three wells” value (compound at 20, reading M56 of time course) was 2.133 and the “Th-T fluorescence, mean of three wells” value (compound at 20, reading M57 of time course) was 2.135. The “Th-T fluorescence, mean of three wells” value (compound at 20, reading M58 of time course) was 2.143, the “Th-T fluorescence, mean of three wells” value (compound at 20, reading M59 of time course) was 2.117 and the “Th-T fluorescence, mean of three wells” value (compound at 20, reading M60 of time course) was 2.117. For the same compound, the “Th-T fluorescence, mean of three wells” value (compound at 20, reading M61 of time course) was 2.0819, the “Th-T fluorescence, mean of three wells” value (compound at 20, reading M62 of time course) was 2.098 and the “Th-T fluorescence, mean of three wells” value (compound at 50, reading M41 of time course) was 1.5174. The “Th-T fluorescence, mean of three wells” value (compound at 50, reading M42 of time course) was 1.513, the “Th-T fluorescence, mean of three wells” value (compound at 50, reading M43 of time course) was 1.502 and the “Th-T fluorescence, mean of three wells” value (compound at 50, reading M44 of time course) was 1.5. The “Th-T fluorescence, mean of three wells” value (compound at 50, reading M45 of time course) was 1.494, the “Th-T fluorescence, mean of three wells” value (compound at 50, reading M46 of time course) was 1.488 and the “Th-T fluorescence, mean of three wells” value (compound at 50, reading M47 of time course) was 1.489. The “Th-T fluorescence, mean of three wells” value (compound at 50, reading M48 of time course) was 1.494, the “Th-T fluorescence, mean of three wells” value (compound at 50, reading M49 of time course) was 1.481 and the “Th-T fluorescence, mean of three wells” value (compound at 50, reading M50 of time course) was 1.475. For the same compound, the “Th-T fluorescence, mean of three wells” value (compound at 50, reading M51 of time course) was 1.492, the “Th-T fluorescence, mean of three wells” value (compound at 50, reading M52 of time course) was 1.492 and the “Th-T fluorescence, mean of three wells” value (compound at 50, reading M53 of time course) was 1.469.
